The target in data set [1] is T1, human type PPARδ ligand-binding domain fused with DNA-binding domain of yeast transcription factor (Homo sapiens, UniProt Q03181).
T1 construct: expressed in transfected cells; host or cells: CHO cells
T1 sequence (Q03181 211-439 limits assumed): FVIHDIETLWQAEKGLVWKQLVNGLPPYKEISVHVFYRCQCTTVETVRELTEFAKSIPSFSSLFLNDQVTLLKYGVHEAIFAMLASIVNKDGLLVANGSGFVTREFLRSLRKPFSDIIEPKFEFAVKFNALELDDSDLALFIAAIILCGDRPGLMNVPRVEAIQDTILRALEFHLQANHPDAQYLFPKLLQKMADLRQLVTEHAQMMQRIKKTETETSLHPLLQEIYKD
Description: Test of transactivation on PPAR (luciferase reporter, CHO cells), PPARδ. It counts as cell-based. The note with it: luciferase activity after 24 hours, corrected with Renilla internal standard. The source says:
(§1) <Test of Transactivation on Peroxisome Proliferator-Activated Receptor (PPAR)
(§2) To CHO cells cultured in a Dulbecco-modified Eagle's medium containing 10% delipidated fetal calf serum (FCS/DMEM), receptor plasmid and its reporter plasmid (STRATAGENE Corp.) that manifest fused protein of DNA-binding domain being transcription factor of yeast with each ligand-binding domain of human type PPAR (Biochemistry, 1993, 32, 5598), and luciferase plasmid of Renilla (PROMEGA Corp.) for internal standard were cotransfected with lipofectamine in the serum-free state. Thereafter, testing compound was added to the 10% SFCS/DMEM and both luciferase activities were measured after 24 hours, which were corrected with internal standard.

The target in data set [2] is T2, human type PPARα ligand-binding domain fused with DNA-binding domain of yeast transcription factor (Homo sapiens, UniProt Q07869).
T2 construct: expressed in transfected cells; host or cells: CHO cells
T2 sequence (Q07869 239-466 limits assumed): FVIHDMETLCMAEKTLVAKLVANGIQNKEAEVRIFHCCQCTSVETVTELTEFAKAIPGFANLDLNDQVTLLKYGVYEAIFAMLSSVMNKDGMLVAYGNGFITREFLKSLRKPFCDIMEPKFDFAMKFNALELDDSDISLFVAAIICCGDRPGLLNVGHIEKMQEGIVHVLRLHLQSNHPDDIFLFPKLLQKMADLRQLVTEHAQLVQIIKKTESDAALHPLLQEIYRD
Nature of the data set: Test of transactivation on PPAR (luciferase reporter, CHO cells), PPARα. Conditions: luciferase activity after 24 hours, corrected with Renilla internal standard. In kind it is cell-based.
Excerpt: as §1, §2
For orientation: Reporter assays use an easily measured gene product as a stand-in for the process of interest.

Data set [3] concerns the target T3, human type PPARγ ligand-binding domain fused with DNA-binding domain of yeast transcription factor (Homo sapiens, UniProt P37231).
T3 construct: expressed in transfected cells; host or cells: CHO cells
T3 sequence (P37231 238-503 limits assumed): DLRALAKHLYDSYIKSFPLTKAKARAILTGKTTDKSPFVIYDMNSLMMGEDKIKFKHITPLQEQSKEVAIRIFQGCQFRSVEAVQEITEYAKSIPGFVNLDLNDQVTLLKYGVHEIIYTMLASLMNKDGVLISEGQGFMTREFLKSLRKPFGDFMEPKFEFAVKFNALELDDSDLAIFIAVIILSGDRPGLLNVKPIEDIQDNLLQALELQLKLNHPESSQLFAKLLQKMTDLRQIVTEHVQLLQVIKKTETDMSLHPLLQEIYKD
Nature of the data set: Test of transactivation on PPAR (luciferase reporter, CHO cells), PPARγ. In kind it is cell-based. Conditions: luciferase activity after 24 hours, corrected with Renilla internal standard.
Excerpt: as §1, §2

Molecules are shown by their SMILES. pEC50: −log10 of the molar value.

As for `CCOc1ccc(CC(CC)C(=O)O)cc1CNC(=O)c1ccc(Oc2ccccn2)cc1` (racemic) [Example 26, 2-[[4-Ethoxy-3-[[[4-(2-pyridyloxy)phenyl]carbonylamino]-methyl]phenyl]methyl]butyric acid], the pEC50 (commonly −log10 of the EC50, conventionally taken in molar units) is 6.72 in data set [1], 7.36 in data set [2] and 6.39 in data set [3].
As to `CCC(Cc1ccc(OC)c(C(=O)NCc2ccc(Oc3ccccn3)cc2)c1)C(=O)O` (centres unmarked) [Example 18], the melting point – broadly, the temperature of the solid-liquid transition – was 138 to 139 °C. The pEC50 in data set [1] is less than 4.00. Besides, the pEC50 in data set [2] is 6.85. For the same compound, in data set [3], the pEC50 is 5.02.
For `CCOc1ccc(CC(CC)C(=O)O)cc1CNC(=O)c1ccc(Oc2ccccn2)cc1` (single isomer, unassigned; (+)) [Example 27, (+)-2-[[4-Ethoxy-3-[[[4-(2-pyridyloxy)phenyl]carbonylamino]-methyl]phenyl]methyl]butyric acid], the pEC50 is 6.68 in data set [1], 7.22 in data set [2] and 6.26 in data set [3].
For `CCOc1ccc(CC(CC)C(=O)O)cc1CNC(=O)c1ccc(Oc2ccccn2)cc1` (single isomer, unassigned; (-)) [Example 28, (−)-2-[[4-Ethoxy-3-[[[4-(2-pyridyloxy)phenyl]carbonylamino]methyl]phenyl]methyl]butyric acid], in that order: 5.96, 6.72 and 6.24.
Compound `COc1ccc(CCC(=O)O)cc1C(=O)NCc1cccnc1` [Example 16, 3-[3-[N-(3-Pyridylmethyl)carbamoyl]-4-methoxyphenyl]propionic acid] returned a melting point of 175 to 176 °C.
Take `CCC(Cc1ccc(OC)c(CNC(=O)c2ccc(Oc3cccnc3)cc2)c1)C(=O)O` (centres unmarked) [Example 23]: the pEC50 was 5.66 in data set [1], 6.47 in data set [2] and 5.27 in data set [3].
